Test results as given in patent publication US9169260B2 (MERCK SHARP & DOHME CORP., priority 2011, dated 2015).
Read-outs that look alike come from different tables or passages of the source.

Target: GST tagged IRAK-4 (Homo sapiens (Human), UniProt Q9NWZ3)
Assay: IRAK-4 Kinase Assay (IMAP fluorescence polarization)
Assay type: biochemical
Outline: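 Activity was read by IMAP fluorescence polarization, where phosphopeptide binding to M(III) nanoparticles raises FP. The 30-minute, 25° C reaction used 100 μM ATP, 100 nM RP7030 substrate and 0.5 nM GST-IRAK-4 in pH 7.2 Tris buffer with MgCl2, DTT and Tween 20.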

[1] = 100 μM ATP, 30 minutes at 25° C., μM
[2] = 100 μM ATP, 30 minutes at 25° C.

GST tagged IRAK-4, sequence (Q9NWZ3 whole entry): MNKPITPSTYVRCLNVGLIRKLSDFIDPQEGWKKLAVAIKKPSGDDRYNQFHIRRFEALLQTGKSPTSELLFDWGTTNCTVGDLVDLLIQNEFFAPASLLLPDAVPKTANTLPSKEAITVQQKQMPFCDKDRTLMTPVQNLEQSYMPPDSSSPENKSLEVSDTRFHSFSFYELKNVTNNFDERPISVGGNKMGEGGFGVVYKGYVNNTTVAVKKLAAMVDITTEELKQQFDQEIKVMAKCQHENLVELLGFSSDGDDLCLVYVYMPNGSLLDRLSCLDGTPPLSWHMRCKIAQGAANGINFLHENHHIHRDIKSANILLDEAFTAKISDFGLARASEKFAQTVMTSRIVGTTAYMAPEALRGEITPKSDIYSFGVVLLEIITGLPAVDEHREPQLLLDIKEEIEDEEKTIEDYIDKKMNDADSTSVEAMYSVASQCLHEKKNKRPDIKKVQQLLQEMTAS

Compound: CCNC(=O)N1CC(N2CCC(c3cc(NC(=O)c4cnn5cccnc45)n(-c4ccc(C)cc4)n3)CC2)C1 [Example 237, N-[3-{1-[1-(ethylcarbamoyl)azetidin-3-yl]piperidin-4-yl}-1-(4-methylphenyl)-1H-pyrazol-5-yl]pyrazolo[1,5-a]pyrimidine-3-carboxamide]
- IC50 [1]: < 1 µM

Compound: Cc1ccc(-n2nc(C3CCN(S(=O)(=O)c4cccc(C#N)c4)CC3)cc2NC(=O)c2cnn3cccnc23)cc1 [Example 374, N-[3-{1-[(3-cyanophenyl)sulfonyl]piperidin-4-yl}-1-(4-methylphenyl)-1H-pyrazol-5-yl]pyrazolo[1,5-a]pyrimidine-3-carboxamide]
- IC50 [1]: < 1 µM

Compound: Cc1ccc(-n2nc(C3CCN(C(=O)C4CN(C)CCO4)CC3)cc2NC(=O)c2cnn3cc(Br)cnc23)cc1 (centres unmarked) [Example 117, 6-bromo-N-(3-(1-(4-methylmorpholine-2-carbonyl)piperidin-4-yl)-1-(p-tolyl)-1H-pyrazol-5-yl)pyrazolo[1,5-a]pyrimidine-3-carboxamide]
- IC50 [1]: < 1 µM

Compound: Cc1ccc(-n2nc(C3CCN(C(C)c4ncccc4F)CC3)cc2NC(=O)c2cnn3cccnc23)cc1 (centres unmarked) [Example 212, N-(3-(1-(1-(3-fluoropyridin-2-yl)ethyl)piperidin-4-yl)-1-(p-tolyl)-1H-pyrazol-5-yl)pyrazolo[1,5-a]pyrimidine-3-carboxamide]
- IC50 [1]: < 1 µM

Compound: Cc1ccc(-n2nc(C3CCN(S(=O)(=O)c4cnn(C)c4)CC3)cc2NC(=O)c2cnn3cccnc23)cc1 [Example 375, N-[1-(4-methylphenyl)-3-{1-[(1-methyl-1H-pyrazol-4-yl)sulfonyl]piperidin-4-yl}-1H-pyrazol-5-yl]pyrazolo[1,5-a]pyrimidine-3-carboxamide]
- IC50 [1]: < 1 µM

Compound: Cc1ccc(-n2nc(C3CCN(Cc4ccccn4)CC3)cc2NC(=O)c2cnn3cccnc23)cc1 [Example 226, N-{1-(4-methylphenyl)-3-[1-(pyridin-2-ylmethyl)piperidin-4-yl]-1H-pyrazol-5-yl}pyrazolo[1,5-a]pyrimidine-3-carboxamide]
- IC50 [2]: < 0.1 µM

Compound: Cc1ccc(-n2nc(C3CCCN(Cc4cncs4)C3)cc2NC(=O)c2cnn3cccnc23)cc1 (centres unmarked) [Example 284, N-{1-(4-methylphenyl)-3-[1-(1,3-thiazol-5-ylmethyl)piperidin-3-yl]-1H-pyrazol-5-yl}pyrazolo[1,5-a]pyrimidine-3-carboxamide]
- IC50 [1]: < 1 µM

Compound: Cc1ccc(-n2nc(C3CCN(Cc4ccsc4)CC3)cc2NC(=O)c2cnn3cccnc23)cc1 [Example 223, N-{1-(4-methylphenyl)-3-[1-(thiophen-3-ylmethyl)piperidin-4-yl]-1H-pyrazol-5-yl}pyrazolo[1,5-a]pyrimidine-3-carboxamide]
- IC50 [2]: < 0.1 µM

Compound: N-(3-(1-methylpiperidin-4-yl)-1-(5-methylpyridin-2-yl)-1H-pyrazol-5-yl)pyrazolo[1,5-a]pyrimidine-3-carboxamide [Example 399]
- IC50: < 0.1 µM

Compound: Cc1ccc(-n2nc(C3CN(S(=O)(=O)C4CC4)C3)cc2NC(=O)c2cnn3cccnc23)cc1 [Example 84, N-(3-(1-(cyclopropylsulfonyl)azetidin-3-yl)-1-(p-tolyl)-1H-pyrazol-5-yl)pyrazolo[1,5-a]pyrimidine-3-carboxamide]
- IC50 [1]: < 1 µM

Compound: Cc1ccc(-n2nc(C3CCN(S(C)(=O)=O)CC3)cc2NC(=O)c2cnn3cccnc23)nc1 [Example 153, N-(1-(5-methylpyridin-2-yl)-3-(1-(methylsulfonyl)piperidin-4-yl)-1H-pyrazol-5-yl)pyrazolo[1,5-a]pyrimidine-3-carboxamide]
- IC50 [2]: < 0.1 µM

Compound: Cc1ccc(-n2nc(-c3cnn(CCS(C)(=O)=O)c3)cc2NC(=O)c2cnn3cccnc23)cc1 [Example 333, N-{1-(4-methylphenyl)-1′-[2-(methylsulfonyl)ethyl]-1H,1′H-3,4′-bipyrazol-5-yl}pyrazolo[1,5-a]pyrimidine-3-carboxamide]
- IC50 [1]: < 1 µM

Compound: CNS(=O)(=O)c1ccc(-c2cc(NC(=O)c3cnn4cc(C5CC5)cnc34)n(-c3ccc(C)cn3)n2)cc1 [Example 195, 6-cyclopropyl-N-(1-(5-methylpyridin-2-yl)-3-(4-(N-methylsulfamoyl)phenyl)-1H-pyrazol-5-yl)pyrazolo[1,5-a]pyrimidine-3-carboxamide]
- IC50 [1]: < 1 µM

Compound: Cc1ccc(-n2nc(C3CCN(C4CCC(C#N)CC4)CC3)cc2NC(=O)c2cnn3cccnc23)nc1 (centres unmarked) [Example 265, N-{3-[1-(4-cyanocyclohexyl)piperidin-4-yl]-1-(5-methylpyridin-2-yl)-1H-pyrazol-5-yl}pyrazolo[1,5-a]pyrimidine-3-carboxamide]
- IC50 [2]: < 0.1 µM

Compound: Cc1ccc(-n2nc(C3CCN(C4CN(C(=O)OC(C)C)C4)CC3)cc2NC(=O)c2cnn3cccnc23)cc1 [Example 240, 1-methylethyl 3-(4-{1-(4-methylphenyl)-5-[(pyrazolo[1,5-a]pyrimidin-3-ylcarbonyl)amino]-1H-pyrazol-3-yl}piperidin-1-yl)azetidine-1-carboxylate]
- IC50 [1]: < 1 µM

Compound: Cc1ccc(-n2nc(C3CCN(S(=O)(=O)c4c(Cl)cccc4Cl)CC3)cc2NC(=O)c2cnn3cccnc23)cc1 [Example 390, N-[3-{1-[(2,6-dichlorophenyl)sulfonyl]piperidin-4-yl}-1-(4-methylphenyl)-1H-pyrazol-5-yl]pyrazolo[1,5-a]pyrimidine-3-carboxamide]
- IC50 [1]: > 1 µM

Compound: CCN1CCC(N2CCC(c3cc(NC(=O)c4cnn5cccnc45)n(-c4ccc(C)cn4)n3)CC2)CC1 [Example 279, N-[3-(1′-ethyl-1,4′-bipiperidin-4-yl)-1-(5-methylpyridin-2-yl)-1H-pyrazol-5-yl]pyrazolo[1,5-a]pyrimidine-3-carboxamide]
- IC50 [2]: < 0.1 µM

Compound: COc1ccc(-n2nc(C3CCN(S(C)(=O)=O)CC3)cc2NC(=O)c2cnn3cccnc23)c(F)c1 [Example 64, N-(1-(2-fluoro-4-methoxyphenyl)-3-(1-(methylsulfonyl)piperidin-4-yl)-1H-pyrazol-5-yl)pyrazolo[1,5-a]pyrimidine-3-carboxamide]
- IC50 [2]: < 0.1 µM

Compound: Cc1ccc(-n2nc(C3CCN(S(=O)(=O)C4CC4)CC3)cc2NC(=O)c2cnn3cccnc23)cc1 [Example 26, N-(3-(1-(cyclopropylsulfonyl)piperidin-4-yl)-1-(p-tolyl)-1H-pyrazol-5-yl)pyrazolo[1,5-a]pyrimidine-3-carboxamide]
- IC50 [1]: < 1 µM

Compound: Cc1ccc(-n2nc(C3CCNCC3)cc2NC(=O)c2cnn3cccnc23)nc1 [Example 152, N-(1-(5-methylpyridin-2-yl)-3-(piperidin-4-yl)-1H-pyrazol-5-yl)pyrazolo[1,5-a]pyrimidine-3-carboxamide]
- IC50 [2]: < 0.1 µM

Compound: CNS(=O)(=O)c1ccc(-c2cc(NC(=O)c3cnn4cc(Cl)cnc34)n(-c3ccc(C)cn3)n2)cc1 [Example 196, 6-chloro-N-(1-(5-methylpyridin-2-yl)-3-(4-(N-methylsulfamoyl)phenyl)-1H-pyrazol-5-yl)pyrazolo[1,5-a]pyrimidine-3-carboxamide]
- IC50 [2]: < 0.1 µM

Compound: Cc1ccc(-n2nc(-c3ccc(S(C)(=O)=O)cc3)cc2NC(=O)c2cnn3cccnc23)nc1 [Example 179, N-(1-(5-methylpyridin-2-yl)-3-(4-(methylsulfonyl)phenyl)-1H-pyrazol-5-yl)pyrazolo[1,5-a]pyrimidine-3-carboxamide]
- IC50 [2]: < 0.1 µM

Compound: Cc1ccc(-n2nc(-c3ccc(S(=O)(=O)N4CCOCC4)cc3)cc2NC(=O)c2cnn3cccnc23)nc1 [Example 177, N-(1-(5-methylpyridin-2-yl)-3-(4-(morpholinosulfonyl)phenyl)-1H-pyrazol-5-yl)pyrazolo[1,5-a]pyrimidine-3-carboxamide]
- IC50 [2]: < 0.1 µM
